# According to patent EP2177496A1, “New analogs of polysphorin and uses thereof for treating or preventing malaria” (Assistance Publique - Hôpitaux de Paris, priority 2008, dated 2010):
# Key:
# P. falciparum [1] = assay: In vitro activity against erythrocytic stage of P. falciparum ([3H]-hypoxanthine incorporation); format: cell-based, chloroquine-sensitive (3D7w) clone of P. falciparum; conditions: read-out: IC50 (µM) Erythrocytic stage P. falciparum
# Procedure: After 48 hours, [^3H]-hypoxanthine (Amersham) was added to each well and then plates were incubated for 24 hours. Parasites were harvested, and incorporation of radioactivity was determined by liquid scintillation counting (Beckman LS1701, les Ulis, France). The counts-per-minute (cpm) was adjusted relative to controls to obtain percentages of inhibition. […] This estimation was obtained with IC50 estimator software. For the assay, the parasites were synchronized by D-sorbitol treatment.
# P. yoelii = assay: In vitro activity against hepatic stage of P. yoelii (sporozoite-infected HepG2/CD81 cells or rodent hepatocytes, liver-schizont count); format: cell-based, P. yoelii (265 BY strain); conditions: rodent parasite P. yoelii, cultures arrested at 48 h
# Procedure: (§1) Activity against pre-erythrocytic stages was tested by in vitro assays with the human parasite P. falciparum (NF54 strain) and the rodent parasite P. yoelii (265 BY strain). The rodent parasite P. yoelii is produced in the insectarium of the INSERM Unit U511 and human parasite P. falciparum was obtained from collaboration with R. Sauerwein.
# (§2) Sporozoites were obtained from infected salivary glands of Anopheles stephensi mosquitoes fed on continuous culture of P. falciparum (coll R. Sauerwein, Netherlands), or on P. yoelii parasitized mice (insectarium of the INSERM Unit U511). After aseptic dissection, salivary glands were homogenized in a glass grinder and diluted in culture medium or sterile phosphate-buffered saline (PBS).
# (§3) Primary cultures of rodent or human hepatocytes were prepared from liver segments taken from mouse or from adult patients undergoing partial hepatectomy. Hepatocytes were isolated using the two-step enzymatic perfusion technique (Guguen-Guillouzo et al., 1982) and were further purified on a discontinuous Percoll gradient. Then, hepatocytes were seeded in eight-chamber Lab-Tek permanox slides at a density of 1,4x10^5 cells per cm^2, and maintained under culture conditions as described in Mahmoudi et al., 2003. After complete adherence to culture plates, rodent and human hepatocytes were infected with P. yoelii or P. falciparum sporozoites, respectively, aseptically dissected from mosquitoes' salivary glands, as described above. Hepatocytes were inoculated with 6x10^4 sporozoites per Lab-Tek well. Compounds to be tested were added at the time of infection and/or after penetration of the sporozoites and at different concentrations (three wells per dilution). Every day, medium was replaced by fresh medium containing or not different concentrations of the molecules to be tested. Cultures were arrested at 48 hours (P. yoelii) or 6 days (P. falciparum) and cells were fixed with methanol. Liver-schizonts were quantified by microscopic examination after fluorescent labeling using a primary mouse antibody directed against Plasmodium heat shock protein-70 (Renia et al., 1990) produced in INSERM unit 511 and a secondary goat anti-mouse antibody conjugated with fluorescein isothiocyanate (Sigma Aldrich).
# [2] = MTT toxicity assay reported with the erythrocytic stage (TC50), cells not named; format: cell-based; conditions: 50% toxic concentration, read-out: TC50 (µM) Erythrocytic stage P. falciparum
# From the text: The selectivity index (SI) was defined as the ratio of the TC50 to the IC50.
# HepG2 cells = assay: in vitro; conditions: read-out: TC50 (µM) Hepatic stage (rodent) P. yoelii; 50% toxic concentration, MTT assay
# Procedure: (§4) A preliminary screening was performed consisting in the infection of human CD81 transfected hepatocarcinome cell line HepG2 (HepG2/CD81) with P. yoelii. IC50 (inhibiting concentration 50), TC50 (toxic concentration 50) and TI (therapeutic index, ratio TC50/IC50) were estimated for each drug tested. Selected molecules (small IC50, high TC50 and high TI) were analyzed in human hepatocytes. Briefly, HepG2 cells were plated in 96-well plates for 24 h prior to inoculation with 1x10^4 of P. yoelii sporozoites. Sporozoites-inoculated culture plates were centrifuged for 5 min at 1,500 rpm at 4°C in order to enhance the infection rate as described by Gruner (Gruner et al., 2005). After 3h at 37°C, the cultures were washed and further incubated in fresh medium for 48 h (P. yoelii) before quantification of infected cells in triplicate wells.
# (§5) Toxicity was determined by using the colorimetric 3-(4,5-dimethylthiazol-2-yl)-2,5-diphenyltetrazolium bromide (MTT) assay (Mosman., 1983). Briefly, HepG2 cells cultures were prepared in 96-well plates as described above. Drugs were tested in triplicate wells at eight concentrations ranging from 6.4 × 10^-3 µM to 200 µM. One hundred microliters of 0.5 mg/ml MTT (5 mg/ml MTT in water diluted 10x in William's medium without fetal bovine serum) was added to each well, and the plates were incubated for 4 h (37°C, 5% CO2). The medium was discarded, and the cells were resuspended in ethanol and dimethyl sulfoxide (50/50, vol/vol). The plates were read in an enzyme-linked immunosorbent assay plate reader (550-nm absorbance wavelength and 620-nm reference wavelength). The results were expressed as the percent change in viability compared to drug-free control cultures. […] Each drug and concentration was tested at least in triplicate. The selectivity index (SI) was defined as the ratio of the TC50 to the IC50.
# in vitro = conditions: human, TC50 (µM) Hepatic stage (rodent) P. yoelii, 50% toxic concentration, MTT assay
# Procedure: as §4, §5
# P. falciparum [3] = assay: In vitro activity against hepatic stage of P. falciparum in primary human hepatocytes (liver-schizont count); format: cell-based, P. falciparum (NF54 strain); conditions: cultures arrested at 6 days
# Procedure: as §1, §2
# as §3, with “Every day, medium was replaced by fresh medium containing or not different concentrations of the molecules to be tested. Cultures were arrested at 48 hours (P. yoelii) or 6 days (P. falciparum) and cells were fixed with methanol.” left out
# [4] = MTT toxicity assay on human hepatocytes (TC50)
# Procedure: Cytotoxic effect of the compounds was evaluated on human hepatocytes, obtained as described above. The colorimetric MTT assay was used (Mosman., 1983). Briefly, hepatocyte cultures were prepared in 96-well plates as described above. Drugs were tested in triplicate wells at eight concentrations ranging from 6.4 x 10^-3 µM to 200 µM. One hundred microliters of 0.5 mg/ml MTT (5 mg/ml MTT in water diluted 10x in William's medium without fetal bovine serum) was added to each well, and the plates were incubated for 4 h (37°C, 5% CO2). The medium was discarded, and the cells were resuspended in ethanol and dimethyl sulfoxide (50/50, vol/vol). The plates were read in an enzyme-linked immunosorbent assay plate reader (550-nm absorbance wavelength and 620-nm reference wavelength). The results were expressed as the percent change in viability compared to drug-free control cultures. […] Each drug and concentration was tested at least in triplicate. The selectivity index (SI) was defined as the ratio of the TC50 to the IC50.
# [5] = Plasmodium falciparum, Erythrocyte, 72 h, ring stage parasitized erythrocytes, 3D7w clone, 48 h + 24 h with [3H]-hypoxanthine
# [6] = ring stage parasitized erythrocytes, 3D7w clone, 48 h + 24 h with [3H]-hypoxanthine
# [7] = Plasmodium yoelii, Hepatocyte, 48 h
Compound,IC50 (P. falciparum [1]; [5]),IC50 (P. yoelii),CC50 [2],CC50 (HepG2 cells),CC50 (in vitro),IC50 (P. falciparum [1]; [6]),other results
COc1cc(C(O)C(C)Oc2c(OC)cccc2OC)cc(OC)c1OC (centres unmarked) [drawing 74],> 40 µM,28.6 µM,58 µM,57.9 µM,,,
COc1cc(C(O)C(C)Oc2c(OC)cccc2OC)cc(OC)c1OC (centres unmarked) [drawing 75],,2.52 µM,,0.126 µM,,,
"CCN(CC)CCCC(C)Nc1ccnc2cc(Cl)ccc12 (centres unmarked) [Chloroquine, reference compound]",,,,,,,"IC50 (P. falciparum [1]; Plasmodium falciparum, Erythrocyte, 72 h): 0.04 µM"
"COc1cc(NC(C)CCCN)c2ncccc2c1 (centres unmarked) [Primaquine, reference compound]",,,,,12.6 µM,,
COc1cc(C(O)C(C)Oc2c(OC)cc(C)cc2OC)cc(OC)c1OC (centres unmarked) [drawing 77],,0.0045 ± 0.005 µM,49.5 µM,49.5 µM,,> 40 µM,"IC50 (P. falciparum [3]; Plasmodium falciparum, Hepatocyte, 144 h): 0.38 µM; CC50 [4]: 125 µM"
COc1cc(C)cc(OC)c1OC(C)C(O)c1ccc2c(c1)OC(F)(F)O2 (centres unmarked) [drawing 72],13.6 µM,19 µM,57 µM,,56.8 µM,,
COc1cc(C(O)C(C)Oc2c(OC)cc(-c3ccccc3)cc2OC)cc(OC)c1OC (centres unmarked) [drawing 79],,3.61 ± 4 µM,50 µM,> 50 µM,,20 µM,IC50 (P. falciparum [3]): 0.007 µM
COc1cc(C(O)C(C)Oc2c(OC)cc(C)cc2OC)cc(OC)c1OC (centres unmarked) [drawing 76],> 40 µM,50.1 µM,47 µM,,47 µM,,
COc1cccc(OC)c1OC(C)C(O)c1ccc2c(c1)OC(F)(F)O2 (centres unmarked) [drawing 71],,20.2 µM,53 µM,,,> 40 µM,
COc1cc(C(O)C(C)Oc2c(OC)cc(-c3ccccc3)cc2OC)cc(OC)c1OC (centres unmarked) [drawing 78],11.5 µM,,50 µM,,> 50 µM,,IC50 (P. yoelii; [7]): 3.54 ± 4.9 µM; IC50 (P. falciparum [3]): 0.02 µM; CC50 [4]: 50 µM
COc1cccc(OC)c1OC(C)C(O)c1ccc2c(c1)OC(F)(F)O2 (centres unmarked) [drawing 70],> 40 µM,,55 µM,,54.9 µM,,IC50 (P. yoelii; [7]): 20.1 µM
COc1cc(C)cc(OC)c1OC(C)C(O)c1ccc2c(c1)OC(F)(F)O2 (centres unmarked) [drawing 73],,5.62 µM,53.7 µM,53.7 µM,,13.5 µM,
